# Experimental data as given in PMC5672024, “Selective Glucocorticoid Receptor Properties of GSK866 Analogs with Cysteine Reactive Warheads” (Frontiers in Immunology, 2017).
# Key:
# [1] = test system: GR nuclear translocation in A549 cells; assay: Immunofluorescence of nuclear GR translocation in A549 cells; format: cell-based, human; conditions: serum starved A549 cells, 1 µM, 30 min
# Description: To detect endogenous GR in A549 cells, cells were grown in serum free media for 24 h followed by treatment with 1 µM of specific GR ligands. After 30 min of treatment, cells on the cover glass were fixed in 4% formaldehyde in phosphate-buffered saline (PBS), permeabilized with 0.3% Triton X-100–PBS, and then blocked in 5% milk, 10% FCS, 0.3% bovine serum albumin, and 0.3% Triton X-100 in PBS for 30 min at room temperature. Primary antibodies against anti GR-antibody (SantaCruz Biotechnology) were used at a dilution of 1:200. Nuclei were stained by DAPI and samples were analyzed using a confocal Leica LSM410 microscope. To quantify nuclear translocation of GR in a standardized manner, multichannel fluorescence images were analyzed using a script for FIJI image analysis freeware (http://fiji.sc) that is essentially based on a pipeline described before (CellBlocks.ijm) ([39]), and is available upon request. In brief, the analysis first segments nuclei in the Hoechst/DAPI channel and then uses the nuclear mask to define perinuclear cytoplasmic regions of interest (ROIs). Nuclei are detected after local contrast enhancement and Gaussian smoothing to, respectively, cover for spatial illumination heterogeneity and noise. After automatic thresholding (Isodata algorithm), touching nuclei are separated using a conditional watershed algorithm ([40]). Next, cytoplasmic ROIs are determined as concentric bands around the nuclei by Voronoi-restrained region growing ([41]). Finally, the average intensity of the GR channel is measured in both the nuclear and cytoplasmic ROIs and the nuclear-to cytoplasm signal intensity ratio (N/C Ratio) is calculated per cell (Figure S1 in Supplementary Material) ([42]).
# Figure 6 Selective glucocorticoid receptor agonist GSK866 analogs UAMC-1217, UAMC-1218, but not UAMC-1158 and UAMC-1159 trigger nuclear glucocorticoid receptor (GR) translocation. (A) Serum starved A549 cells were left solvent treated or treated for 30 min with 1 µM Dex, Dex-mesylate (Dex-Mes), GSK866, UAMC-1158, UAMC-1159, UAMC-1217, or UAMC-1218. GR translocation was evaluated by immunofluorescence whereas nuclei were stained by DAPI dye. Magnification is at 100×. White scalebars represent […]. (B) Automated image quantification of GR translocation of three replicate immunofluorescence images of the different experimental setups.
# recombinant GR-LBD (hGR) = assay: Mass spectrometry of tryptic peptides of recombinant GR-LBD after ligand incubation (covalent binding); parameters: species or system human; conditions: 2 h at 37°C, trypsin digestion, LC-MS/MS
# Description: Recombinant His6-MBP-mCaspase3 site-LBD-hGR was expressed in the Escherichia coli strain BL21codon + pICA2 that was transformed with the corresponding pLHM36LBD-hGR plasmid and in which expression was induced by Isopropyl β-D-1-thiogalactopyranoside (IPTG) under control of a pL-promotor. The transformed bacteria were grown in Luria Bertani medium supplemented with ampicillin (100 µg/ml) and kanamycin (50 µg/ml) overnight at 28°C before 1/100 inoculation in 12 × 0.5 l provided with Luria Bertani medium supplemented with ampicillin (100 µg/ml) and 1% glycerol in a shaker incubator. The cells were grown to an optical density at AU 600 nm of 0.65, transferred to 20°C and expression was induced by addition of 1 mM IPTG overnight. Cells were then harvested and frozen at −20°C. […] After thawing, the cells were re-suspended at 3 ml/g in cold 20 mM Tris-HCl pH 7.4, 200 mM NaCl, 1 mM EDTA, 1 tablet complete protease inhibitor cocktail from Roche/50 ml, and 10 mM β-mercaptoethanol. The cytoplasmic fraction was prepared by sonication of the cells on ice and isolated by centrifugation at 18,000 × g for 30 min. All further purification steps were conducted at 4°C. The clear supernatant was applied to an amylase column (BioLabs, XK26 × 20, 100 ml), equilibrated with 20 mM Tris–HCl pH 7.4, 200 mM NaCl, 1 mM EDTA, and 10 mM β-mercaptoethanol. The column was eluted with 20 mM Tris–HCl pH 7.4, 200 mM NaCl, 1 mM EDTA, 10 mM maltose, and 10 mM β-mercaptoethanol. […] Recombinant purified His-MBP-DEVD-GR-LBD fusion protein was dissolved at a concentration of 1 mg in 1.7 ml PBS buffer.
# Each aliquot was incubated 2 h at 37°C. […] 120 µl of each sample was loaded onto a spin column and the flow-through was collected (1,500 × g, 2 min). Trypsin (5 µl of 20 mM stock solution) was added, and the samples were incubated 20 h at 37°C. Then, 0.1% FA (formic acid) (41.5 µl) and 20 mM TCEP in 0.1% FA (18.5 µl, 5.7 mg TCEP/ml) were added [final volume = 185 µl, final concentration TCEP = 2 mM, 1 µg material/2.5 μl], and the samples were subjected to LC–MS/MS analysis.
# The obtained peptide mixtures were introduced onto an LC–MS/MS system; the Ultimate 3000 RSLC nano (Dionex, Amsterdam, The Netherlands) in-line connected to an LTQ-Orbitrap Velos (Thermo Fisher Scientific, Bremen, Germany). The sample mixture was loaded on a trapping column [made in-house, 100 µm internal diameter (I.D.) × 20 mm, 5 µm C18 beads (Reprosil-HD, Dr. Maisch)]. After back flushing from the trapping column, the sample was loaded on a reverse-phase column [made in-house, 75 µm I.D. × 150 mm, 5 µm C18 beads (Reprosil-HD, Dr. Maisch)].
# The mass spectrometer was operated in data-dependent mode, automatically switching between MS and MS/MS acquisition for the 10 most abundant peaks in a given MS spectrum. […]
# GILZ/TSC22D3 mRNA = assay: qPCR of GR target gene GILZ/TSC22D3 in HaCat cells; format: cell-based; conditions: 6 h, 10, 100 or 1,000 nM, compared with Dex
# Description: qPCR was performed using the GoTaq qPCR Master Mix (Promega) according to manufacturer’s instructions. In short, a 25 µl reaction volume mix per sample was prepared containing 12.5 µl GoTaq qPCR Master Mix, 0.4 µM forward and reverse primer, and nuclease-free water. We used the Rotor-Gene Q qPCR machine of Qiagen with following PCR program: 95°C for 2 min, 40 cycli denaturation (95°C, 15 s) and annealing/extension (60°C, 30 s), and dissociation (60–95°C). […] Each sample was run in triplicate. The median value of the triplicates were taken to calculate the deltaCt-values using GAPDH as the normalization gene.
# (A) QPCR assays was performed against the GR target gene GILZ/TSC22D3 in HaCat cells treated for 6 h with different concentrations 10, 100 or 1,000 nM Dex or UAMC-1217. Bar graph plot represents the relative mRNA levels of GILZ/TSC22D3 upon Dex or UAMC-1217 treatment. (B) QPCR assays was performed against the TNF-inducible inflammatory gene interleukin-6 (IL6) in HaCat cells treated for 6 h with different concentrations 10, 100, or 1,000 nM Dex or UAMC-1217 either or not, cotreated for the last 4 h with TNF (2,500 IU/ml) as indicated in panel (B). […] Significant mean differences versus control setups panel (A) or TNF treated setup panel (B) are marked as *** (P < 0.001), **(P < 0.01), * (P < 0.05) and were determined by one-way ANOVA (Dunnetts Posttest).
Modifications: GR-LBD cysteine-containing peptide covalently bound (recombinant GR-LBD (hGR)),Modifications: GR-LBD cysteine-containing peptide covalently bound (recombinant GR-LBD (hGR); listed as 1217),SMILES,nuclear GR translocation [1],GILZ/TSC22D3 gene expression (GILZ/TSC22D3 mRNA)
,,"C[C@@H]1C[C@H]2[C@@H]3CCC4=CC(=O)C=C[C@]4(C)[C@@]3(F)[C@@H](O)C[C@]2(C)[C@@]1(O)C(=O)CO [Dex, Dexamethasone, reference compound]",induce (partial) translocation of GR from the cytosol to the nucleus,
Cys-622,Peptide 615–633 → C622,CCN(C[C@@](O)(CNC(=O)c1cnn(-c2ccc(F)cc2)c1N)C(F)(F)F)C(=O)c1c(Cl)ccc(NC(=O)CCl)c1Cl [UAMC-1217],induce (partial) translocation of GR from the cytosol to the nucleus,reduced transactivation effects
